Reference: ChEMBL document CHEMBL2057203, “Synthesis and evaluation of novel F-18 labeled 4-aminoquinazoline derivatives: potential PET imaging agents for tumor detection” (Bioorg Med Chem Lett, 2012)

How the values were obtained:
[1] = n-octanol-PBS partition coefficient, logP of the compound; assay type: physicochemical
Plasma = experiment: Metabolic stability in mouse plasma after 2 hrs by radio-HPLC analysis; assay type: ADME, cell-free
[2] = Chemical stability in PBS after 2 hrs by radio-HPLC analysis at room temperature; assay type: physicochemical; details: buffer
[3] = Chemical stability in PBS after 2 hrs by radio-HPLC analysis at 60 degC; assay type: physicochemical; details: buffer
Heart [4] = experiment: Biodistribution in S180 tumor-bearing mouse heart at 8 to 10 uCi, iv after 5 mins by gamma counting; assay type: ADME, organism-based; details: in vivo
Liver [5] = experiment: Biodistribution in S180 tumor-bearing mouse liver at 8 to 10 uCi, iv after 5 mins by gamma counting; assay type: ADME, organism-based; details: in vivo
Spleen [6] = experiment: Biodistribution in S180 tumor-bearing mouse spleen at 8 to 10 uCi, iv after 5 mins by gamma counting; assay type: ADME, organism-based; details: in vivo
Lung [7] = experiment: Biodistribution in S180 tumor-bearing mouse lungs at 8 to 10 uCi, iv after 5 mins by gamma counting; assay type: ADME, organism-based; details: in vivo
Kidney [8] = experiment: Biodistribution in S180 tumor-bearing mouse kidneys at 8 to 10 uCi, iv after 5 mins by gamma counting; assay type: ADME, organism-based; details: in vivo
Stomach [9] = experiment: Biodistribution in S180 tumor-bearing mouse stomach at 8 to 10 uCi, iv after 5 mins by gamma counting; assay type: ADME, organism-based; details: in vivo
Muscle tissue [10] = experiment: Biodistribution in S180 tumor-bearing mouse muscle at 8 to 10 uCi, iv after 5 mins by gamma counting; assay type: ADME, organism-based; details: in vivo
Brain [11] = experiment: Biodistribution in S180 tumor-bearing mouse brain at 8 to 10 uCi, iv after 5 mins by gamma counting; assay type: ADME, organism-based; details: in vivo
Mus musculus [12] = experiment: Biodistribution in S180 cells xenografted in mouse tumor at 8 to 10 uCi, iv after 5 mins by gamma counting; assay type: ADME, organism-based, Neoplasm, CCRF S-180; details: in vivo
Blood [13] = experiment: Biodistribution in S180 tumor-bearing mouse blood at 8 to 10 uCi, iv after 5 mins by gamma counting; assay type: ADME, organism-based; details: in vivo
Nucleic Acid [14] = experiment: Ratio of drug level in tumor to muscle in S180 tumor-bearing mouse at 8 to 10 uCi, iv at 5 mins by gamma counting; assay type: ADME, organism-based; details: in vivo
Nucleic Acid [15] = experiment: Ratio of drug level in tumor to blood in S180 tumor-bearing mouse at 8 to 10 uCi, iv at 5 mins by gamma counting; assay type: ADME, organism-based; details: tumour
Nucleic Acid [16] = experiment: Ratio of drug level in tumor to brain in S180 tumor-bearing mouse at 8 to 10 uCi, iv at 5 mins by gamma counting; assay type: ADME, organism-based; details: in vivo
Heart [17] = experiment: Biodistribution in S180 tumor-bearing mouse heart at 8 to 10 uCi, iv after 30 mins by gamma counting; assay type: ADME, organism-based; details: in vivo, 0.5 h
Liver [18] = experiment: Biodistribution in S180 tumor-bearing mouse liver at 8 to 10 uCi, iv after 30 mins by gamma counting; assay type: ADME, organism-based; details: in vivo, 0.5 h
Spleen [19] = experiment: Biodistribution in S180 tumor-bearing mouse spleen at 8 to 10 uCi, iv after 30 mins by gamma counting; assay type: ADME, organism-based; details: in vivo, 0.5 h
Lung [20] = experiment: Biodistribution in S180 tumor-bearing mouse lung at 8 to 10 uCi, iv after 30 mins by gamma counting; assay type: ADME, organism-based; details: in vivo, 0.5 h
Kidney [21] = experiment: Biodistribution in S180 tumor-bearing mouse kidney at 8 to 10 uCi, iv after 30 mins by gamma counting; assay type: ADME, organism-based; details: in vivo, 0.5 h
Stomach [22] = experiment: Biodistribution in S180 tumor-bearing mouse stomach at 8 to 10 uCi, iv after 30 mins by gamma counting; assay type: ADME, organism-based; details: in vivo, 0.5 h
Muscle tissue [23] = experiment: Biodistribution in S180 tumor-bearing mouse muscle at 8 to 10 uCi, iv after 30 mins by gamma counting; assay type: ADME, organism-based; details: in vivo, 0.5 h
Brain [24] = experiment: Biodistribution in S180 tumor-bearing mouse brain at 8 to 10 uCi, iv after 30 mins by gamma counting; assay type: ADME, organism-based; details: in vivo, 0.5 h
Mus musculus [25] = experiment: Biodistribution in S180 cells xenografted in mouse tumor at 8 to 10 uCi, iv after 30 mins by gamma counting; assay type: ADME, organism-based, Neoplasm, CCRF S-180; details: in vivo, 0.5 h
Blood [26] = experiment: Biodistribution in S180 tumor-bearing mouse blood at 8 to 10 uCi, iv after 30 mins by gamma counting; assay type: ADME, organism-based; details: in vivo, 0.5 h
Nucleic Acid [27] = experiment: Ratio of drug level in tumor to muscle in S180 tumor-bearing mouse at 8 to 10 uCi, iv at 30 mins by gamma counting; assay type: ADME, organism-based; details: in vivo, 0.5 h
Nucleic Acid [28] = experiment: Ratio of drug level in tumor to blood in S180 tumor-bearing mouse at 8 to 10 uCi, iv at 30 mins by gamma counting; assay type: ADME, organism-based; details: tumour, 0.5 h
Nucleic Acid [29] = experiment: Ratio of drug level in tumor to brain in S180 tumor-bearing mouse at 8 to 10 uCi, iv at 30 mins by gamma counting; assay type: ADME, organism-based; details: in vivo, 0.5 h
Heart [30] = experiment: Biodistribution in S180 tumor-bearing mouse heart at 8 to 10 uCi, iv after 60 mins by gamma counting; assay type: ADME, organism-based; details: in vivo, 1 h
Liver [31] = experiment: Biodistribution in S180 tumor-bearing mouse liver at 8 to 10 uCi, iv after 60 mins by gamma counting; assay type: ADME, organism-based; details: in vivo, 1 h
Spleen [32] = experiment: Biodistribution in S180 tumor-bearing mouse spleen at 8 to 10 uCi, iv after 60 mins by gamma counting; assay type: ADME, organism-based; details: in vivo, 1 h
Lung [33] = experiment: Biodistribution in S180 tumor-bearing mouse lung at 8 to 10 uCi, iv after 60 mins by gamma counting; assay type: ADME, organism-based; details: in vivo, 1 h
Kidney [34] = experiment: Biodistribution in S180 tumor-bearing mouse kidney at 8 to 10 uCi, iv after 60 mins by gamma counting; assay type: ADME, organism-based; details: in vivo, 1 h
Stomach [35] = experiment: Biodistribution in S180 tumor-bearing mouse stomach at 8 to 10 uCi, iv after 60 mins by gamma counting; assay type: ADME, organism-based; details: in vivo, 1 h
Muscle tissue [36] = experiment: Biodistribution in S180 tumor-bearing mouse muscle at 8 to 10 uCi, iv after 60 mins by gamma counting; assay type: ADME, organism-based; details: in vivo, 1 h
Brain [37] = experiment: Biodistribution in S180 tumor-bearing mouse brain at 8 to 10 uCi, iv after 60 mins by gamma counting; assay type: ADME, organism-based; details: in vivo, 1 h
Mus musculus [38] = experiment: Biodistribution in S180 cells xenografted in mouse tumor at 8 to 10 uCi, iv after 60 mins by gamma counting; assay type: ADME, organism-based, Neoplasm, CCRF S-180; details: in vivo, 1 h
Blood [39] = experiment: Biodistribution in S180 tumor-bearing mouse blood at 8 to 10 uCi, iv after 60 mins by gamma counting; assay type: ADME, organism-based; details: in vivo, 1 h
Nucleic Acid [40] = experiment: Ratio of drug level in tumor to muscle in S180 tumor-bearing mouse at 8 to 10 uCi, iv at 60 mins by gamma counting; assay type: ADME, organism-based; details: in vivo, 1 h
Nucleic Acid [41] = experiment: Ratio of drug level in tumor to blood in S180 tumor-bearing mouse at 8 to 10 uCi, iv at 60 mins by gamma counting; assay type: ADME, organism-based; details: tumour, 1 h
Nucleic Acid [42] = experiment: Ratio of drug level in tumor to brain in S180 tumor-bearing mouse at 8 to 10 uCi, iv at 60 mins by gamma counting; assay type: ADME, organism-based; details: in vivo, 1 h
Heart [43] = experiment: Biodistribution in S180 tumor-bearing mouse heart at 8 to 10 uCi, iv after 120 mins by gamma counting; assay type: ADME, organism-based; details: in vivo, 2 h
Liver [44] = experiment: Biodistribution in S180 tumor-bearing mouse liver at 8 to 10 uCi, iv after 120 mins by gamma counting; assay type: ADME, organism-based; details: in vivo, 2 h
Spleen [45] = experiment: Biodistribution in S180 tumor-bearing mouse spleen at 8 to 10 uCi, iv after 120 mins by gamma counting; assay type: ADME, organism-based; details: in vivo, 2 h
Lung [46] = experiment: Biodistribution in S180 tumor-bearing mouse lung at 8 to 10 uCi, iv after 120 mins by gamma counting; assay type: ADME, organism-based; details: in vivo, 2 h
Kidney [47] = experiment: Biodistribution in S180 tumor-bearing mouse kidney at 8 to 10 uCi, iv after 120 mins by gamma counting; assay type: ADME, organism-based; details: in vivo, 2 h
Stomach [48] = experiment: Biodistribution in S180 tumor-bearing mouse stomach at 8 to 10 uCi, iv after 120 mins by gamma counting; assay type: ADME, organism-based; details: in vivo, 2 h
Muscle tissue [49] = experiment: Biodistribution in S180 tumor-bearing mouse muscle at 8 to 10 uCi, iv after 120 mins by gamma counting; assay type: ADME, organism-based; details: in vivo, 2 h
Brain [50] = experiment: Biodistribution in S180 tumor-bearing mouse brain at 8 to 10 uCi, iv after 120 mins by gamma counting; assay type: ADME, organism-based; details: in vivo, 2 h
Mus musculus [51] = experiment: Biodistribution in S180 cells xenografted in mouse tumor at 8 to 10 uCi, iv after 120 mins by gamma counting; assay type: ADME, organism-based, Neoplasm, CCRF S-180; details: in vivo, 2 h
Blood [52] = experiment: Biodistribution in S180 tumor-bearing mouse blood at 8 to 10 uCi, iv after 120 mins by gamma counting; assay type: ADME, organism-based; details: in vivo, 2 h
Nucleic Acid [53] = experiment: Ratio of drug level in tumor to muscle in S180 tumor-bearing mouse at 8 to 10 uCi, iv at 120 mins by gamma counting; assay type: ADME, organism-based; details: in vivo, 2 h
Nucleic Acid [54] = experiment: Ratio of drug level in tumor to blood in S180 tumor-bearing mouse at 8 to 10 uCi, iv at 120 mins by gamma counting; assay type: ADME, organism-based; details: tumour, 2 h
Nucleic Acid [55] = experiment: Ratio of drug level in tumor to brain in S180 tumor-bearing mouse at 8 to 10 uCi, iv at 120 mins by gamma counting; assay type: ADME, organism-based; details: in vivo, 2 h
Blood [56] = experiment: Clearance in S180 tumor-bearing mouse blood at 8 to 10 uCi, iv at 120 mins; assay type: ADME, organism-based; details: in vivo, 2 h

logP [1]: 0.89
Stability (Plasma): Stable
Stability [2]: Stable
Stability [3]: Stable
Drug uptake (Heart [4]): 4.79 % ID/g
Drug uptake (Liver [5]): 9.67 % ID/g
Drug uptake (Spleen [6]): 2.84 % ID/g
Drug uptake (Lung [7]): 12.21 % ID/g
Drug uptake (Kidney [8]): 10.85 % ID/g
Drug uptake (Stomach [9]): 8.52 % ID/g
Drug uptake (Muscle tissue [10]): 1.87 % ID/g
Drug uptake (Brain [11]): 0.78 % ID/g
Drug uptake (Mus musculus [12]): 0.38 % ID/g
Drug uptake (Blood [13]): 4.43 % ID/g
Ratio (Nucleic Acid [14]): 0.2
Ratio (Nucleic Acid [15]): 0.09
Ratio (Nucleic Acid [16]): 0.49
Drug uptake (Heart [17]): 1.12 % ID/g
Drug uptake (Liver [18]): 7.96 % ID/g
Drug uptake (Spleen [19]): 1.25 % ID/g
Drug uptake (Lung [20]): 5.12 % ID/g
Drug uptake (Kidney [21]): 2.83 % ID/g
Drug uptake (Stomach [22]): 7.03 % ID/g
Drug uptake (Muscle tissue [23]): 2.46 % ID/g
Drug uptake (Brain [24]): 0.39 % ID/g
Drug uptake (Mus musculus [25]): 4.04 % ID/g
Drug uptake (Blood [26]): 1.58 % ID/g
Ratio (Nucleic Acid [27]): 1.64
Ratio (Nucleic Acid [28]): 2.56
Ratio (Nucleic Acid [29]): 10.36
Drug uptake (Heart [30]): 0.98 % ID/g
Drug uptake (Liver [31]): 1.87 % ID/g
Drug uptake (Spleen [32]): 0.8 % ID/g
Drug uptake (Lung [33]): 5.6 % ID/g
Drug uptake (Kidney [34]): 0.9 % ID/g
Drug uptake (Stomach [35]): 4.05 % ID/g
Drug uptake (Muscle tissue [36]): 0.43 % ID/g
Drug uptake (Brain [37]): 0.19 % ID/g
Drug uptake (Mus musculus [38]): 3.31 % ID/g
Drug uptake (Blood [39]): 1.11 % ID/g
Ratio (Nucleic Acid [40]): 7.7
Ratio (Nucleic Acid [41]): 2.98
Ratio (Nucleic Acid [42]): 17.42
Drug uptake (Heart [43]): 1.87 % ID/g
Drug uptake (Liver [44]): 1.78 % ID/g
Drug uptake (Spleen [45]): 1.05 % ID/g
Drug uptake (Lung [46]): 3.6 % ID/g
Drug uptake (Kidney [47]): 1.07 % ID/g
Drug uptake (Stomach [48]): 4.1 % ID/g
Drug uptake (Muscle tissue [49]): 1.31 % ID/g
Drug uptake (Brain [50]): 0.09 % ID/g
Drug uptake (Mus musculus [51]): 3.7 % ID/g
Drug uptake (Blood [52]): 0.56 % ID/g
Ratio (Nucleic Acid [53]): 2.82
Ratio (Nucleic Acid [54]): 6.61
Ratio (Nucleic Acid [55]): 41.11
CL (Blood [56]): 88%
SMILES: COc1cc2ncnc(Nc3cccc(Br)c3)c2cc1OCC[18F]
